Read-outs that look alike come from different tables or passages of the source.
Test system: capacitative calcium entry (CCE) in IP3 receptor-deficient strain of cell line DT40
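Note: intracellular Ca2+ read as 340/380 nm excitation ratio at 510 nm emission, stores emptied by thapsigargin without external Ca2+, then 2 mM CaCl2 added, inhibition of the ensuing Ca2+ rise.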

Procedure: (Assay of Capacitative Calcium Entry Inhibition)
Its 510 nm fluorescence obtained at 340 nm and 380 nm is measured and the fluorescence ratio F340/380 is measured to determine the intracellular calcium ion concentration. Next, thapsigargin (an endoplasmic reticulum calcium ion pump inhibitor) is allowed to act without calcium ion in an extracellular fluid to deplete an intracellular calcium store. Calcium chloride at a final concentration of 2 mM is added to the extracellular fluid. The IC50 value is calculated by estimating the effect of each compound on the degree of increase in the intracellular calcium concentration at the time of the addition.

| Compound | inhibition (1 µM) [%] | inhibition (3 µM) [%] | inhibition (0.1 µM) [%] | inhibition (0.2 µM) [%] | inhibition (0.3 µM) [%] | inhibition (10 µM) [%] |
| --- | --- | --- | --- | --- | --- | --- |
| Cc1ccc(B(OCCN(C)C)c2ccc(COCc3ccc(B(OCCN(C)C)c4ccc(C)c(Cl)c4)cc3)cc2)cc1Cl [Example 104, Bis(4,4′-(3-chloro-4-methylphenyl-N,N-dimethylaminoethoxyboryl)benzyl) ether] | 20 | 100 | – | – | – | – |
| NCCOB(c1ccccc1)c1ccc(COCc2cccc(B(OCCN)c3ccccc3)c2)cc1 [Example 13, (3-(Phenylaminoethoxyboryl)benzyl) (4-(phenylaminoethoxyboryl)benzyl) ether] | – | – | 10 | 80 | 100 | – |
| OB(c1ccc(COc2ccc(B(O)c3ccc(C(F)(F)F)cc3)cc2)cc1)c1ccc(C(F)(F)F)cc1 [Example 54, (4-Trifluoromethylphenylhydroxyborylphenyl) (4′-trifluoromethylphenylhydroxyborylbenzyl) ether] | 60 | 100 | – | – | – | – |
| NCCOB(c1ccc(COc2ccc(B(OCCN)c3ccc(C(F)(F)F)cc3)cc2)cc1)c1ccc(C(F)(F)F)cc1 [Example 55] | 20 | 100 | – | – | 0 | – |
| Cc1ccc(B(OCCN)c2ccc(-c3ccc(B(OCCN)c4ccc(C)cc4)cc3)cc2)cc1 [Example 45, 4,4′-(4-Methylphenylaminoethoxyboryl)diphenyl] | 20 | 100 | – | – | – | – |
| CC(C)(C)c1cc(B(OCCN)c2ccccc2)c2c(c1)C(C)(C)c1cc(C(C)(C)C)cc(B(OCCN)c3ccccc3)c1O2 [Example 60, 4,5-Di(phenylaminoethoxyboryl)-2,7-di-t-butyl-9,9-dimethylxanthrene] | 20 | 100 | – | – | – | – |
| c1ccc(B(OCc2ccccn2)c2ccc(Oc3ccc(B(OCc4ccccn4)c4ccccc4)cc3)cc2)cc1 [Example 160, Bis(4,4′-(phenyl-2-pyridylmethoxyboryl)phenyl) ether] | – | 0 | – | – | – | 100 |
| OB(c1ccccc1)c1ccc(COCc2ccccc2B(O)c2ccccc2)cc1 [Example 12, (2-(Phenylhydroxyboryl)benzyl) (4-(phenylhydroxyboryl)benzyl) ether] | 80 | 100 | – | – | 10 | – |
| NC(COB(c1ccccc1)c1ccc(COCc2ccc(B(OCC(N)c3ccccc3)c3ccccc3)cc2)cc1)c1ccccc1 (stereo not shown) [Example 164, Bis(4,4′-(phenyl-2-phenyl-2-amino-ethoxyboryl)benzyl) ether] | – | 100 | – | – | – | 100 |
| Cc1ccc(B(OCC2CCCCN2)c2ccc(COCc3ccc(B(OCC4CCCCN4)c4ccc(C)c(Cl)c4)cc3)cc2)cc1Cl (stereo not shown) [Example 105, Bis(4,4′-(3-chloro-4-methylphenyl-2-piperidylmethyloxyboryl)benzyl) ether] | 30 | 100 | – | – | – | – |
| CN(C)CCOB(c1ccccc1)c1cccc(COCc2cccc(B(OCCN(C)C)c3ccccc3)c2)c1 [Example 85, Bis(3,3′-(phenyl-N,N-dimethylaminoethoxyboryl)benzyl) ether] | 10 | 90 | – | – | – | – |

Source: US8017809B2, “Bisboron compound” (Japan Science and Technology Agency, priority 2005, dated 2011)
